Patent EP2106802A1, “Modified peptides as synthetic vaccines in amyloid-associated disease” (SIGMA-TAU Industrie Farmaceutiche Riunite S.p.A., priority 2008, dated 2009)
No end group written: not given here.

Experiments:
[1] = test system: T lymphocytes expressing CXCR5 in PBMCs of healthy donors; assay: CXCR5 expression in T-lymphocytes after peptide stimulation (flow cytometry); type: cell-based, human; conditions: for Percentage of T-lymphocytes expressing CXCR5, 1st and 3rd quartine: 1st and 3rd quartile of 10 donors; for expression of CXCR5 with respect to CTR: T-lymphocytes, Friedman test, result in words; for Percentage of T-lymphocytes expressing CXCR5: peptides 5ug/ml, 4 days after third stimulation; for Percentage of T-lymphocytes expressing CXCR5, Median: median of 10 donors, * P = <0,001 (Friedman)
Description: In order to evaluate the expression of a specific marker (CXCR5) in cultured […], the cells, 4 days after the third stimulation, were washed twice and stained with anti-CXCR5, in PBS supplemented with 0.5% FCS and 0.01%NaN3 at 4°C. After twenty minutes they were washed twice and analysed on FACSCanto flow cytometer (Becton Dickinson). The data were analyzed using FlowJo software (TreeStar, CA, USA).
Table 3. The CXCR5 expression measured as % of T lymphocytes expressing CXCR5 in PBMCs of healthy donors vs total lymphocytes (median, 1st and 3rd quartile) has been reported. Friedman Repeated Measures Analysis of Variance on Ranks has been performed. Column 1: number of different donors (Pz); column 2: the percentage of control (CTR) not challenged T lymphocytes expressing CXCR5; columns 3-12: the percentage of T lymphocytes expressing CXCR5 after the stimulation with different peptides.
CXCR5, a chemokine transmembrane receptor belonging to the CXC chemokine receptor family plays an essential role in B cell activation (Legler D.F., et al., J. Exp. Med., 1998, 187, 4, 655). The CXCR5 expression was measured as % of T-lymphocytes expressing CXCR5 versus total lymphocytes (median, 1st and 3rd quartile) and Friedman Repeated Measures Analysis of Variance on Ranks was performed.

[2] = active vaccination, APP transgenic mice; cited from earlier work
[3] = phase II studies, patients who received the vaccine; cited from earlier work

Description for IFN-γ: To do this, the T-lymphocytes form peripheral blood mononuclear cells (PBMCs) response to Aβ[1-42] and Aβ[1-16], Aβ[1-16]-G, Aβ[1-16]+G, Aβ[13-28], Aβ[13-28]-G, Aβ[13-28]+G, Aβ[25-42], Aβ[25-42]-G, Aβ[25-42]+G was studied with the following experimental procedure:
In order to obtain mature dentritic cells, PBMCs from healthy donors were isolated by Ficoll-Hypaque gradient centrifugation (Pharmacia, Uppsala, Sweden). The cells were washed twice with PBS and finally were cultured at 10^6 cells/ml in RPMI 1640 supplemented with 10% (v/v) heat inactivated human serum (Bio Whittaker; Cambrex, Bioscience, Walkersville, MD Usa), 2mM L-glutamine, 20mM HEPES [N-2-hydroxyethylpiperazine-N'-2-ethanesulfonic acid], 1mM sodium pyruvate, 20mM non-essential amino acids, 55 µM 2-β-mercaptoethanol, 10 U/ml penicillin and streptomycin (Gibco and Invitrogen).
In order to obtain a pure culture of human peripheral blood monocytes, cells were purified by plastic adherence at 37°C for 30 minutes, followed by extensive washing with warm PBS to remove non-adherent cells. The monocytes were cultured in six-well plates (0,5 to 1,5 * 10^6 cells/m) in fresh complete medium supplemented with 1000U/ml of recombinant granulocyte-macrophage colony-stimulating factor (rGM-CSF) and 500U/ml interleukin-4 (IL-4, Pharmigen) for four days. The non-adherent mononuclear cells were washed repeatedly and cultured in 96-well round bottom plates (Nunc, Denmark) (10^6 cell/ml) in complete culture medium supplemented with interleukin-2 (IL-2; 5U/ml; Roche) for 4 days and used for subsequent studies. Monocytes-derived immature dendritic cells (DCs) were stimulated with the Aβ[1-16], Aβ[1-16]-G, Aβ[1-16]+G, Aβ[13-28], Aβ[13-28]-G, Aβ[13-28]+G, Aβ[25-42], Aβ[25-42]-G, Aβ[25-42]+G and Aβ[1-42] peptides (5ug/ml) for 1 day. For induction of dentritic cells (DC) maturation, the cells were stimulated with 50ng/ml TNFα (Pharmigen), 10ng/ml IL-6, 10ng/ml IL-1β, and 1µg/ml PGE2 for additional 2 days. Finally, they were cultured with autologous T-lymphocytes in 96-well flat bottom plates at a 1:4 ratio. A second stimulation with mature autologous monocyte-derived DC's previously stimulated with the peptides was performed at 10-14 days at the same ratios. Following further 10-14 days, lymphocytes were labelled with CFDA challenged with a third stimulation of monocyte-derived DC in the presence of peptides.
In order to evaluate the amount of IFN-γ produced by lymphocytes after the final third peptides stimulation the supernatants from cultured cells were harvested at 24 or 48 hr after the third stimulation. Cytokines were quantified by a standard-2-site sandwich enzyme-liked immunosorbent assay (ELISA). Abs for human IFN-γ were purchased from Pharmigen. Enhanced protein-binding ELISA plates (Nunc Maxisorb, Nunc Maxi, Roskilde, Denmark) were used.

Row | Substance | production of IFN-γ in challenged T-lymphocytes (IFN-γ) | Percentage of T-lymphocytes expressing CXCR5, 1st and 3rd quartine [1] | expression of CXCR5 with respect to CTR [1] | Percentage of T-lymphocytes expressing CXCR5 ([1]; donor Pz1) [%] | Percentage of T-lymphocytes expressing CXCR5 ([1]; donor Pz2) [%] | Percentage of T-lymphocytes expressing CXCR5 ([1]; donor Pz3) [%] | Percentage of T-lymphocytes expressing CXCR5 ([1]; donor Pz4) [%] | Percentage of T-lymphocytes expressing CXCR5 ([1]; donor Pz5) | Percentage of T-lymphocytes expressing CXCR5 ([1]; donor Pz6) | Percentage of T-lymphocytes expressing CXCR5 ([1]; donor Pz7) | Percentage of T-lymphocytes expressing CXCR5 ([1]; donor Pz8) [%] | Percentage of T-lymphocytes expressing CXCR5 ([1]; donor Pz9) [%] | Percentage of T-lymphocytes expressing CXCR5 ([1]; donor Pz10) [%] | Percentage of T-lymphocytes expressing CXCR5, Median [1] | amyloid pathology [2] | patients who developed meningoencephalitis [3]
1 | Seq.3: Aβ[1-16] fragment modified by introduction of glycines in alternate positions, at odd positions (-G) (GAGFGHGSGYGVGHGK) | statistically significative production of IFN-γ | 14.1-39.9% | statistically different expression of CXCR5 with respect to CTR | 16.05 | 20.05 | 64.01 | 2.09 | 9,5% | 6,9% | 14,7% | 40.06 | 35.03 | 36.00 | 30.6* % | – | –
2 | Seq.9: Aβ[25-42] fragment modified by introduction of glycines in alternate positions, at odd positions (-G) (GSGKGAGIGLGVGGGVGA) | statistically significative production of IFN-γ | 9.2-33.4% | statistically different expression of CXCR5 with respect to CTR | 23.01 | 15.02 | 11.03 | 0.08 | 11,3% | 7,5% | 13,4% | 61.07 | 36.01 | 34.06 | 14.9* % | – | –
3 | Seq.6: Aβ[13-28] fragment modified by introduction of glycines in alternate positions, at odd positions (-G) (GHGKGVGFGEGVGSGK) | statistically significative production of IFN-γ | 11.3-39.9% | statistically different expression of CXCR5 with respect to CTR | 22.04 | 23.03 | 25.09 | 0 | 13,4% | 7,3% | 14,6% | 43.03 | 31.03 | 29.05 | 21.7* % | – | –
4 | Seq.1: Aβ[1-42] synthetic peptide, neurotoxic β amyloid peptide [reference compound] | statistically significative production of IFN-γ | 8.6-40.2% | statistically different expression of CXCR5 with respect to CTR | 19.06 | 15.07 | 68.0 | 0.09 | 8,6% | – | 13,3% | – | – | – | 17.7* % | – | –
5 | Seq.5: Aβ[13-28] fragment of the Aβ[1-42] sequence (HHQKLVFFAEDVGSNK) | statistically significative production of IFN-γ | 8.5-30.4% | statistically different expression of CXCR5 with respect to CTR | 15.05 | 23.05 | 12.08 | 1.02 | 8,5% | 7,4% | 13,5% | 45.01 | 33.00 | 30.04 | 14.5* % | – | –
6 | GGNGGGIGGGMGGGVGIG [Seq.10] | statistically significative production of IFN-γ | – | – | – | – | – | – | – | – | – | – | – | – | – | – | –
7 | AN1792: aggregated Aβ[1-42], first βA active vaccination (Pharmaceuticals Inc/Wyeth Pharmaceuticals) | – | – | – | – | – | – | – | – | – | – | – | – | – | – | showed improvement in amyloid pathology | about 6%
8 | Seq.8: Aβ[25-42] fragment of the Aβ[1-42] sequence (GSNKGAIIGLMVGGVVIA) | statistically significative production of IFN-γ | 8.2-36.7% | statistically different expression of CXCR5 with respect to CTR | 19.00 | 13.06 | 64.04 | 0.08 | 8,2% | 7,3% | 15,8% | 45.00 | 36.07 | 36.00 | 17.4* % | – | –
